Source: patent US20090318381A1, “Halogenated alkyl di-and trisaccharides, pharmaceutical formulations, diagnostic kits and methods of treatment” (priority 2006, published 2009)

Columns and labels:
[1] = test system: Listeria Monocytogenes; conditions: in conjunction with certain organic acids; J. Applied Bacteriol. 1996; cited from earlier work
[2] = test system: Adenovirus Infection of Bladder Epithelium; conditions: pretreatment agent; Ramesh et al., Molecular Therapy 2004; cited from earlier work
[3] = test system: Pseudomonas aeruginosa; assay: Antimicrobial testing, time-kill log reduction against P. aeruginosa; format: cell-based; conditions: for Concentration (CFU/mL): 5 ml of 1% Compound 3 solution + 20 ml PBS pH 7.2; for Log Reduction: log inoculum verification minus sample log recovery
Procedure: (§1) The preferred embodiment was tested for antimicrobial activity using the following procedure.
(§2) A 1% solution of Compound 3 was prepared in DPBS (Dulbecco's phosphate buffered saline). A 25 ml mixture of the 1% Compound 3 and PBS (phosphate buffered saline, pH 7.2 was prepared by mixing 5 ml of the 1% Compound 3 solution and 20 ml of the PBS.
(§3) A 10 ml aliquot of the above mixture was placed into each of two sterile test tubes. One test tube was inoculated with 0.1 ml of S. aureus and the other with 0.1 ml of P. aeruginosa, such that there was a final concentration of 10^6 colony-forming units (CFU)/0.1 mls.
(§4) A various time points, 1.0 ml of each inoculated test sample were removed, diluted 10× with 0.45% saline and plated on trypticase soy agar (TSA) plates.
(§5) Samples of PBS was treated in the same manner. At time points 5 mins and 60 mins, two 1 ml samples were taken and diluted 1 × and one spiked with a 0.1 ml aliquot of the S. aureus and the other spiked with 0.1 ml of the P aeruginosa.
(§6) The plates were incubated at 30-35° C. for not less than 24 hours. Concentration of CFU in the samples taken at each time point were enumerated by standard methods. The log reduction was calculated for each time period and organism. The log reduction was calculated using the formula: Log reduction=Log inoculums verification−sample log recovery.

[4] = test system: Staphylococcus aureus; assay: Antimicrobial testing, time-kill log reduction against S. aureus; format: cell-based; conditions: for Concentration (CFU/mL): 5 ml of 1% Compound 3 solution + 20 ml PBS pH 7.2; for Log Reduction: log inoculum verification minus sample log recovery
Procedure: as §1, §2, §3, §4, §5, §6

[5] = antimicrobial if greater than 5 log reduction

Molecule	anti-microbial against Listeria Monocytogenes [1]	increasing the effectiveness of gene and oncolytic virus therapy [2]	Concentration (CFU/mL) ([3]; 5 minutes)	Log Reduction ([3]; 5 minutes)	Concentration (CFU/mL) ([3]; 15 minutes)	Log Reduction ([3]; 15 minutes)	Concentration (CFU/mL) ([3]; 30 minutes)	Log Reduction ([3]; 30 minutes)	Concentration (CFU/mL) ([3]; 60 minutes)	antimicrobial effect [3, 5]	Concentration (CFU/mL) ([4]; 5 minutes)	Log Reduction ([4]; 5 minutes)	Concentration (CFU/mL) ([4]; 15 minutes)	Log Reduction ([4]; 15 minutes)	Concentration (CFU/mL) ([4]; 30 minutes)	Log Reduction ([4]; 30 minutes)	Concentration (CFU/mL) ([4]; 60 minutes)	Log Reduction ([4]; 60 minutes)	antimicrobial effect [4, 5]
sucrose monolaurate	effective anti-microbial	effective	–	–	–	–	–	–	–	–	–	–	–	–	–	–	–	–	–
CCCCCCCCCCCC(=O)OCC1O[C@H](O[C@@]2(CCl)O[C@H](CCl)C(O)C2O)C(O)C(O)[C@H]1Cl (stereo in doubt) [Compound 3, 1′,6′-Dichloro-1′,6′-dideoxy-β-D-fructofuranosyl-4-chloro-4-deoxy-6-O-monododecanoate-α-D-galactopyranoside]	–	–	1.53 × 10^6 CFU/mL	3.5	1.1 × 10^6 CFU/mL	3.7	1.21 × 10^6 CFU/mL	3.6	TNTC*	not	6.9 × 10^5 CFU/mL	4	4.3 × 10^4 CFU/mL	5.2	1.41 × 10^4 CFU/mL	5.7	2.9 × 10^3 CFU/mL	6.3	has antimicrobial effect
CCCCCCCCCCCCO[C@@H]1O[C@H](CO)[C@@H](O[C@H]2O[C@H](CO)[C@@H](O)[C@H](O)[C@H]2O)[C@H](O)[C@H]1O [dodecyl maltoside]	–	effective	–	–	–	–	–	–	–	–	–	–	–	–	–	–	–	–	–
